Assay results reported in US11959104B2, “Methods of differentiating stem cell-derived ectodermal lineage precursors” (MEMORIAL SLOAN-KETTERING CANCER CENTER, priority 2016, dated 2024).
Entries after “also recorded” stand apart in the source; their conditions may differ. Like-named read-outs stand apart in the source and are kept apart here. Ends that are not written are not given here.

Experiments:
[1] = tested on: Six1::H2B-GFP reporter line; assay: LOPAC small molecule screen and validation for enhanced CP induction
Experimental: All differentiations starting from E8 were dissociated into single cells using EDTA and replated at high density in E8 with the ROCK inhibitor (Tocris). Cells were typically seeded at a density of 200,000 cells/cm^2 on Matrigel coated dishes. Switching from E8 to E6 triggered differentiations (i.e. d0). Neuroectoderm (NE) formation was generated by culturing the cells in E6 with 10 nM SB and 500 nM LDN until d12. Neural Crest (NC) was first treated with 10 nM SB, 600 nM CHIR and 1 ng/ml BMP4 from d0-d2. […] Lens placode was first treated with 10 nM SB and 5 ng/ml BMP4 from d0-d2. At d2, cells were maintained in 10 nM SB with 100 ng/ml FGF2 until d12. Trigeminal placode was first treated with 10 nM SB and 5 ng/ml BMP4 from d0-d2. At d2, CHIR was added to the SB and BMP4 until d4. Finally, non-neural ectoderm (NNE) was treated with 10 nM SB, 10 nM SU5402 and 20 ng/ml BMP4 until d12.

[2] = tested on: hPSC-derived cranial placode; assay: Pituitary placode induction, day 15 (qRT-PCR, immunofluorescence); type: cell-based; details: for induction of anterior pituitary genes / lineage markers: from day 4, day 15 analysis
Experimental: For pituitary differentiation cells were plated at 250 000 cells/cm^2 on VTN-N coated dishes (differentiation works best in 24 well plates) in E8+10 μM Y-27632. After 24 h (day 0) medium was changed to E6 supplemented with 10 μM SB431542 and 5 ng/ml BMP4 (R&D Systems). Medium was changed every day. On day 3 BMP4 was removed from the medium and cells were cultured for 1 day in E6+10 μM SB431542. For the standard differentiation conditions, on day 4 E6 was supplemented with 10 μM SB431542, 200 ng/ml SHH (R&D Systems, C25II), 100 ng/ml FGF8b (R&D Systems) and 50 ng/ml FGF10 (Peprotech Inc.). For some experiments SHH was replaced by 1 μM purmorphamine (Stemgent) or 1 μM SAG (Stemcell Technologies). From now on medium volume was doubled and cells were feed every other day until day 15. On day 15 of differentiation SIX1 H2B::GFP^+ cells were sorted using a BDFACS Aria III cell sorter. Purified cells were then plated as droplets (50 000 cells/10 μl drop) in E6 supplemented with 10 Y-27632, 200 ng/ml SHH, 100 ng/ml FGF8b and 50 ng/ml FGF10 on polyornithine/laminin/fibronectin-coated plates. After 24 h medium was changed to E6 containing SHH, FGF8 and FGF10 until day 30. Medium was changed every other day. For some experiments pituitary induction was started slightly later (day 6) or cells were differentiated in medium conditioned by hypothalamic neuroectoderm from either day 4 or day 6 on. For the co-culture experiment SIX1 H2B::GFP positive cells were sorted on day 6 and 50 000 cells/cm^2 were plated directly on hypothalamic neuroectodermal cells in E6 only supplemented with 10 SB431542.
Total RNA was extracted from at least 3 independent experiments using the TRIzol (Fisher Scientific) reagent in combination with Phase-lock tubes (5Prime) according to the manufactures protocol. 1 μg of total RNA was reverse transcribed into cDNA using iScript (BioRad). For quantitative RT PCR we used the SSoFast EvaGreen Mix (BioRad) in combination with QuantiTect primer assays (Qiagen) on a BioRad CFX96 Thermal Cycler. All reactions were run according to the manufacturer's protocol. Results are calculated using the ΔΔCt method (Livak and Schmittgen, 2001).
After washing the cells once with PBS, cells were fixed with 4% (v/v) paraformaldehyde for 20 min, washed twice with PBS, permeabilized using 0.1% (v/v) Triton X-100 in PBS, Cells were blocked with 10% (v/v) FCS in PBS for 1-5 h at room temperature. Cells were incubated with primary antibodies diluted in 2% FCS (v/v) in PBS at 4° C. overnight. A list of the primary antibodies used in this study is provided as FIG. 28. […] After and additional 2 washing steps, fluorescence images of the cells were taken using an Olympus IX71 inverted microscope equipped with a Hamamatsu ORCA CCD camera.

hPSCs = assay: Toxicity of KSR-protocol small molecule concentrations in E6 differentiation; type: cell-based, human; details: original KSR-protocol concentration used in E6
Excerpt: To transition these protocols into the more defined E6 media, we adapted hPSCs in E8 for multiple passages and simply replaced the KSR-based medium with an E6 based differentiation while maintaining factors and concentrations as described previously to trigger the 4 major ectodermal lineages (FIG. 9A). […] After determining an optimal non-toxic concentration for each of the small molecules we observed that NE formation under E6 conditions was equivalent to that obtained with KSR-based conditions. […] We compared the efficiency of generating PAX6 positive cells using either no small molecules, using dSMADi or using the single TGFβ inhibitor SB431542 (SB). We found robust PAX6 expression in the absence of dSMADi (˜40% of total cells on day 12 post induction). However, the percentage of cells expressing PAX6 was further improved upon addition of SB or dSMADi to nearly 90% and 80%, respectively (FIGS. 1E and 9B).

[3] = tested on: hPSC-derived pituitary cells; assay: Stimulation of hormone release in vitro (ELISA); type: cell-based, human; details: day 30 of differentiation
Experimental: To stimulate hormone release in vitro, cells were differentiated in 24 well plates as described above. On day 30 of differentiation cells were washed once with PBS and 250 μl of fresh medium containing either the solvent or the stimulant were added to each well. After 12 h the supernatant was removed and centrifuged for 5 min at 2000 g to pellet debris. Supernatant was transferred into fresh reaction tubes, flash frozen and stored at −80° C. until ELISA measurements. Stimulants used were: CRF (Tocris, 1 μM), Stressin I (Tocris, 2 μM), Ghrelin (Tocris, 1 μM), Somatocrinin (Accurate Chemical, 1 μg/ml), Nafarelin (Tocris, 1 μM) and Urocortin (Tocris, 500 nM).
Hormone concentration in the supernatant of cells or in animal serum was analyzed using ELISA measurements. Hormone concentration in the cell culture supernatant was assessed using traditional single hormone ELISA Kits according to the manufactures manual. ACTH (Calbiotech, detects rat and human ACTH), hGH (R&D Systems, human specific), FSH (Calbiotech, FSH (lumELISA, human specific) and corticosterone (Abcam). Plates were read using an EnSpire Multimode plate reader (PerkinElmer). Hormone concentration in in vivo samples was analyzed using either traditional ELISA (for ACTH only, serum diluted 1:2) or species specific (human or rat) Milliplex multiplex ELISA using Luminex technology (Millipore). Magnetic bead-based sandwich immunoassay was performed according to the manufactures manual. 25 μl of undiluted serum samples in duplicate wells were analyzed by Luminex FlexMap 3D (Luminex Corp, Austin, TX). Cytokine concentrations were determined by Luminex Xponent 4.1 and EMD-Millipore Milliplex Analyst v5.1 using 5-p log analysis.

hPSC [4] = assay: Neural crest induction, SOX10 positive cells; type: cell-based, human
Experimental: (§1) All differentiations starting from E8 were dissociated into single cells using EDTA and replated at high density in E8 with the ROCK inhibitor (Tocris). Cells were typically seeded at a density of 200,000 cells/cm^2 on Matrigel coated dishes. Switching from E8 to E6 triggered differentiations (i.e. d0). Neuroectoderm (NE) formation was generated by culturing the cells in E6 with […] and 500 nM LDN until d12. Neural Crest (NC) was first treated with […], 600 nM CHIR and 1 ng/ml BMP4 from d0-d2. At d2, cells were maintained in […] with 1.5 uM CHIR until d12. Lens placode was first treated with […] and 5 ng/ml BMP4 from d0-d2. At d2, cells were maintained in […] with 100 ng/ml FGF2 until d12. Trigeminal placode was first treated with […] and 5 ng/ml BMP4 from d0-d2. At d2, CHIR was added to the SB and BMP4 until d4. Finally, non-neural ectoderm (NNE) was treated with 10 nM SB, 10 nM SU5402 and 20 ng/ml BMP4 until d12.

hPSC [5] = assay: BMP dose response for TFAP2A, NNE and CP induction in E6 media; type: cell-based, human
Experimental: as §1

[6] = three-day pulse with SB431542, dose-response

## c1cnc2c(c1)ccc1cccnc12 [Phenantroline]
[1]; CP protocol
  percentage of cells expressing Six1 (hit validation): confirmed to reliably enhance the percentage of cells expressing Six1
[1]; CP protocol in the absence of FGF2, control 18%
  Six1 positive cells: 69%
[1]; LOPAC screen, CP protocol
  expression of Six1 versus control differentiations (primary screen hit): increased expression of SIX1
[1]; absence of FGF2, 69% versus 18%
  fold increase of Six1 positive cells: ~4 fold
[1]; differentiation towards CP
  expression of other lineage markers such as Sox10, T, MyoD or Sox17: without inducing the expression of other lineage markers
  increase in Six1 expression over controls: five-fold

## CNC1CCC(N(Cc2cccc(-c3ccncc3)c2)C(=O)c2sc3ccccc3c2Cl)CC1 (centres unmarked) [SAG]
[2]
  induction of anterior pituitary genes / lineage markers: robust induction of anterior pituitary-lineage markers
[2]; small-molecule-based induction replacing SHH
  cell death: increase in cell death

## Cc1c[nH]c(/C=C2\C(=O)Nc3ccccc32)c1CCC(=O)O [SU5402, 2-[(1,2-Dihydro-2-oxo-3H-indol-3-ylidene)methyl]-4-methyl-1H-pyrrole-3-pr-opanoic acid]
hPSCs
  cell killing during differentiation: effectively killed the cells

## c1ccc2c(Oc3nc(Nc4ccc(N5CCOCC5)cc4)c4ncn(C5CCCCC5)c4n3)cccc2c1 [purmorphamine]
[2]
  cell death: increase in cell death
  induction of anterior pituitary genes / lineage markers: robust induction of anterior pituitary-lineage markers

## CRF: stimulant of hormone release (Tocris, 1 μM) (SEEPPISLDLTFHLLREVLEMARAEQLAQQAHSNRKLMEII; ends and bridges not checked; UniProt P06850 154-194, looked up)
[3]
  ACTH release: induced release of ACTH; also recorded: specifically induced

## Ghrelin: stimulant of hormone release (Tocris, 1 μM) (GSSFLSPEHQRVQQRKESKKPPAKLQPR; also: octanoylated, site not given here; UniProt Q9UBU3 24-51, looked up)
[3]
  ACTH release: did not trigger ACTH release

## Somatocrinin: stimulant of hormone release (Accurate Chemical, 1 μg/ml) (YADAIFTNSYRKVLGQLSARKLLQDIMSRQQGESNQERGARARL; ends and bridges not checked; UniProt P01286 32-75, looked up)
[3]
  GH release: induced
[3]; listed as somatocrinin
  ACTH release: did not trigger ACTH release
  GH release: triggered robust increase in GH release

## Urocortin: stimulant of hormone release (Tocris, 500 nM) (DNPSLSIDLTFHLLRTLLELARTQSQRERAEQNRIIFDSV; ends and bridges not checked; UniProt P55089 83-122, looked up)
[3]
  ACTH release: specifically induced
[3]; listed as urocortin
  ACTH release: induced release of ACTH

B1: BMP4: activator of BMP signaling (protein, UniProt P12644 293-408, looked up)
Bone morphogenetic protein 4: SPKHHSQRARKKNKNCRRHSLYVDFSDVGWNDWIVAPPGYQAFYCHGDCPFPLADHLNSTNHAIVQTLVNSVNSSIPKACCVPTELSAISMLYLDEYDKVVLKNYQEMVVEGCGCR
hPSC [4]; short pulse of BMP4 (1 ng/ml) with Wnt activation and SB431542
  SOX10 positive NC population generated: nearly homogenous SOX10 positive NC population
hPSC [4]; [6]
  BMP4 concentration giving strong NC induction: around 1 ng/ml
hPSC [5]; [6]
  BMP4 concentration optimal for CP induction: around 5 ng/ml

B2: BMP: BMP signaling activator used in E6 media, BMP4 per methods (protein, UniProt P12644 293-408, looked up)
Bone morphogenetic protein 4: SPKHHSQRARKKNKNCRRHSLYVDFSDVGWNDWIVAPPGYQAFYCHGDCPFPLADHLNSTNHAIVQTLVNSVNSSIPKACCVPTELSAISMLYLDEYDKVVLKNYQEMVVEGCGCR
hPSC [5]; 20 ng/ml BMP
  marker phenotype at high BMP (NNE): cells become TFAP2A positive and lack the expression of SOX10 and SIX1
hPSC [5]; within three days, with SB431542 in E6 media, dose dependent
  TFAP2A expression: rapidly upregulated
